US20060004195A1, “Alpha,beta-unsaturated esters and acids by stereoselective dehydration” (priority 2004, published 2006)

| melting point | SMILES |
| --- | --- |
| 174 °C | O=C(O)/C(=C\c1cc(-c2ccc3c(c2)OCO3)n(-c2cc(Cl)ccc2Cl)n1)c1cccc(Cl)c1 [Example 606, (Z)-3-[5-Benzo[1,3]dioxol-5-yl-1-(2,5-dichloro-phenyl)-1H-pyrazol-3-yl]-2-(3-chloro-phenyl)-acrylic acid] |
| 295.5 to 297.5 °C | COc1ccc(-n2nc(C[C@H](C(=O)[O-])c3cccc(C)c3)cc2-c2ccc(Cl)c(Cl)c2)cc1.[Na+] (stereo in doubt) |
